According to article PMC8205030, “Methoxy and bromo scans on N-(5-methoxyphenyl) methoxybenzenesulphonamides reveal potent cytotoxic compounds, especially against the human breast adenocarcinoma MCF7 cell line” (Journal of Enzyme Inhibition and Medicinal Chemistry, 2021):
Values after ≈ are worked out from the molar mass of the structure shown. Read-outs that look alike come from different tables or passages of the source.

Assays:
[1] = system: HeLa (human cervical carcinoma) cells; test: Cell growth assay (XTT), HeLa; type: cell-based; details: 72 h drug exposure, read-out: Antiproliferative activity IC50 HeLa
Experimental: (§1) The presence of mycoplasma was routinely checked with MycoAlert kit (Lonza-Cambrex) and only mycoplasma-free cells were used in the experiments. Tumour cell lines were kindly provided by Dr Faustino Mollinedo from Centro de Investigaciones Biológicas Margarita Salas, Madrid, Spain. To determine cell growth, cells in exponential growth phase were seeded (100 µL/well in 96-well plates) with appropriate cell concentration (1.5 × 10^4 cells/mL for MCF7, HeLa and HEK-293 and 3 × 10^4 cells/mL for HT-29) in complete DMEM or RPMI 1640 medium (see above) at 37 °C and 5% CO2 atmosphere. After 24 h incubation, to allow cells to attach to the plates, all compounds were added at 1 µM concentration (10 µL/well in 96-well plates) and the effect on the proliferation was evaluated 72 h post-treatment. Compounds showing antiproliferative effects at tested concentration were selected for IC50 calculation (50% inhibitory concentration compared to the untreated controls) from 10^−5 to 10^−10 M concentration. Nonlinear curves fitting the experimental data were carried out for each compound. […] A freshly prepared mixture solution of XTT labelling reagent with 0.02% (v/v) PMS (N-methyl-dibenzopyrazine methyl sulfate) electron coupling reagent was added to cells (50 µL/well in 96-well plates, the total volume of 160 µL/well) and were incubated during the corresponding time according to each cell line (4 h for MCF7 and HeLa and 6 h for HT-29 and HEK-293) in a humidified atmosphere (37 °C, 5% CO2). The absorbance of the formazan product generated was measured at a test wavelength of 450 nm using a multi-well plate reader (Ultra Evolution, Tecan, Männedorf, Suiza). Compounds were dissolved in DMSO and the final solvent concentrations never exceeded 0.5% (v/v). The control wells included treated cells with 0.5% (v/v) DMSO and the positive control. 10 µM verapamil was included as a control for the HT-29 cell line. Measurements were performed in triplicate, and each experiment was repeated three times.

[2] = system: MCF7 (human breast carcinoma) cells; test: Cell growth assay (XTT), MCF7; type: cell-based; details: for IC50: Homo sapiens, MCF7, 72 h drug exposure, XTT, read-out: Antiproliferative activity IC50 MCF7; for Fold more potent against MCF7 than against HeLa: ratio of IC50 values
Experimental: as §1

[3] = molecular target: T1, microtubular protein isolated from calf brain (Bos taurus, UniProt P81947+Q6B856); test: Inhibition of tubulin polymerisation (turbidity); type: biochemical; details: for TPI % 10 µM: 10 µM compound, 1.5 mg/mL microtubular protein; for IC50: in vitro tubulin polymerisation inhibition, read-out: TPI IC50
T1 construct: isolated from calf brain according to the modified Shelanski method; from tissue; host or cells: calf brain
Experimental: Microtubular protein was isolated from calf brain according to the modified Shelanski method[23]^,[24] by two cycles of temperature-dependent assembly/disassembly and stored at −80 °C. Before each use, protein concentration is determined by Bradford method[25] taking BSA as standard. Tubulin polymerisation was monitored using a Helios α spectrophotometer by measuring the increase in turbidity at 450 nm, caused by a shift from 4 °C to 37 °C, which allows the in vitro microtubular protein to depolymerise and to polymerise, respectively. The assay was carried out in quartz cuvettes containing 1.5 mg/mL microtubular protein and the ligand (except for control cuvette with only DMSO at the same concentration) in a mixture of 0.1 M MES buffer, 1 mM EGTA, 1 mM MgCl2, 1 mM β-ME, and 1.5 mM GTP at pH 6.7 (final volume 500 µL). Cuvettes were preincubated at 20 °C for 30 min, to allow ligand binding to tubulin, and subsequently cooled on ice for 10 min. Then, the experiment starts at 4 °C to establish the initial baseline. The assembly process was initiated by a temperature shift to 37 °C and the turbidity produced by tubulin polymerisation can be measured by an absorbance increase. After reaching a stable plateau, the temperature was switched back to 4 °C to return to the initial absorption values (to confirm the reversible nature of the monitored process and to determine whether or not the microtubular protein has stabilized). The difference in amplitude between the stable plateau and the initial baseline of the curves was taken as the degree of tubulin polymerisation for each experiment. […] All compounds were tested at 10 µM concentration. IC50 values were calculated for compounds that inhibit tubulin polymerisation more than 50% at 10 µM. […] All the measurements were carried out in at least two independent experiments using microtubular protein from different preparations.

[4] = Aqueous solubility (saturation shake-flask, UV); type: physicochemical; details: aqueous buffer, thermodynamic from solid, pH 7.0 phosphate buffer, room temperature
Experimental: The aqueous solubility was determined in a Helios-α UV-320 Spectrophotometer Thermo-Spectronic, Thermo Fischer Scientific, Waltham, MA, USA) using an approach based on the saturation shake-flask method. 1–2 mg of each selected compound was suspended in 300 µL pH 7.0 buffer and stirred for 48 h at room temperature. The resulting mixture was filtered through a […] filter to discard the insoluble residues. A scan between 270 and 400 nm for the tested compound was performed and three wavelengths of maximum absorbance were selected. Calibration curves were performed at these wavelengths and the concentration in the supernatant was measured by UV absorbance. The final value was given as the average of the three measurements.

[5] = system: HT-29 (human colon carcinoma) cells; test: Cell growth assay (XTT), HT-29, alone or with verapamil; type: cell-based
Experimental: as §1, with “Compounds showing antiproliferative effects at tested concentration were selected for IC50 calculation (50% inhibitory concentration compared to the untreated controls) from 10^−5 to 10^−10 M concentration.” left out

[6] = system: HEK293 (human embryonic kidney) cells; test: Cell growth assay (XTT), non-tumorigenic HEK293; type: cell-based; details: for IC50: Homo sapiens, HEK293, non-tumorigenic cell line, 72 h, XTT, read-out: Antiproliferative activity IC50 HEK293
Experimental: as §1

[7] = 72 h, in the presence of Pgp/MDR1 inhibitor verapamil (10 µM), read-out: Antiproliferative activity IC50 HT-29 Verap
[8] = Homo sapiens, HT-29, 72 h drug exposure, XTT, read-out: Antiproliferative activity IC50 HT-29

T1 sequence (Q6B856 whole entry): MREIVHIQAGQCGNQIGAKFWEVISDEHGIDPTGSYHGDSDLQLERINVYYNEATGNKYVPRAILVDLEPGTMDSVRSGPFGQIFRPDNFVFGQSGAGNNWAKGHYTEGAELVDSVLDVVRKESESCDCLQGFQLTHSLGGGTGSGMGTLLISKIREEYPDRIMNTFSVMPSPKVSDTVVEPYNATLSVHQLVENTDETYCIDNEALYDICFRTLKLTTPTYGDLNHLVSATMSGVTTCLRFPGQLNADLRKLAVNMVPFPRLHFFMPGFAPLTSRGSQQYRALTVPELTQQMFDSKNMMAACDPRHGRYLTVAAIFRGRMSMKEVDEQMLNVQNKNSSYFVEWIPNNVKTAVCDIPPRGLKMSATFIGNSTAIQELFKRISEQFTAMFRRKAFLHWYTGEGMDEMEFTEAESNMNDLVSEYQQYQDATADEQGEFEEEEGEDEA
T1 sequence (P81947 whole entry): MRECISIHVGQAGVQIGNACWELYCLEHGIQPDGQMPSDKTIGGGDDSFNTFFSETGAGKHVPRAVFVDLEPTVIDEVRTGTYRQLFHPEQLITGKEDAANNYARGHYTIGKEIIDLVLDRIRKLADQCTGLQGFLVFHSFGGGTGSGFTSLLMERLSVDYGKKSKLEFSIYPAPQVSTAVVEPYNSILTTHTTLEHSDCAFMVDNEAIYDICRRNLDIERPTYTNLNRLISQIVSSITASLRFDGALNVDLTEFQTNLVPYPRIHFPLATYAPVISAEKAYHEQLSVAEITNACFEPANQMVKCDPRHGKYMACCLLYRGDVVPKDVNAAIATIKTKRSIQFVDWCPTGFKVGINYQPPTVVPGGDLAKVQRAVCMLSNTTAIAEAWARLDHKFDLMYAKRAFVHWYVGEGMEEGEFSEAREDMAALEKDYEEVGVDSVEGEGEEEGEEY

COc1ccc(S(=O)(=O)N(C)c2cc(OC)c(OC)cc2OC)cc1 [Compound 33, 4-Methoxy-N-methyl-N-(2,4,5-trimethoxyphenyl)benzenesulphonamide]
IC50 [1]: 413 nM | IC50 [2]: 99 nM | Fold more potent against MCF7 than against HeLa [2]: 4–7 fold | TPI % 10 µM [3]: 0% | IC50 [3]: > 10000 nM | melting point: 137 to 143 °C | solubility at 48 h [4]: 157 µg/mL (≈ 427 µM) | IC50 [5, 7]: 577 nM | IC50 [5, 8]: 500 nM

COc1ccc(S(=O)(=O)Nc2cc(OC)c(Br)cc2OC)cc1 [Compound 23, N-(4-bromo-2,5-dimethoxyphenyl)-4-methoxybenzenesulphonamide]
IC50 [1]: 45 nM | IC50 [2]: 25 nM | TPI % 10 µM [3]: 65% | IC50 [3]: 6900 nM | melting point: 118 to 119 °C | solubility at 48 h [4]: 9 µg/mL (≈ 22.4 µM) | IC50 [5, 7]: 30 nM | IC50 [5, 8]: 72 nM | Selectivity index HEK293 vs HeLa and MCF7 tumour cells [6]: 0.5 to 2 fold | IC50 [6]: 43 nM

COc1ccc(S(=O)(=O)N(C)c2cc(OC)ccc2OC)cc1 [Compound 22, N-(2,5-dimethoxyphenyl)-4-methoxy-N-methylbenzenesulphonamide]
IC50 [1]: 177 nM | IC50 [2]: 153 nM | TPI % 10 µM [3]: 4% | IC50 [3]: > 10000 nM | melting point: 105 to 110 °C | solubility at 48 h [4]: 25 µg/mL (≈ 74.1 µM) | IC50 [5, 7]: 305 nM | IC50 [5, 8]: 250 nM | Selectivity index HEK293 vs HeLa and MCF7 tumour cells [6]: 3- to 5 fold | IC50 [6]: 517 nM

COc1ccc(S(=O)(=O)N(C)c2cc(OC)cc(OC)c2)cc1 [Compound 2, N-(3,5-dimethoxyphenyl)-4-methoxy-N-methylbenzenesulphonamide]
IC50 [1]: 877 nM | IC50 [2]: 765 nM | TPI % 10 µM [3]: 10% | IC50 [3]: > 10000 nM | melting point: 120 to 128 °C | solubility at 48 h [4]: 35 µg/mL (≈ 104 µM) | IC50 [5, 8]: > 1000 nM

COc1ccc(S(=O)(=O)N(C)c2cc(OC)c(Br)cc2OC)cc1 [Compound 24, N-(4-bromo-2,5-dimethoxyphenyl)-4-methoxy-N-methylbenzenesulphonamide]
IC50 [1]: 33 nM | IC50 [2]: 19 nM | TPI % 10 µM [3]: 59% | IC50 [3]: 7600 nM | melting point: 132 to 133 °C | solubility at 48 h [4]: 1 µg/mL (≈ 2.4 µM) | IC50 [5, 7]: 160 nM | IC50 [5, 8]: 123 nM | Selectivity index HEK293 vs HeLa and MCF7 tumour cells [6]: 3- to 5 fold | IC50 [6]: 91 nM

COc1ccc(S(=O)(=O)N(CC#N)c2cc(OC)c(OC)cc2Br)cc1 [Compound 16, N-(2-bromo-4,5-dimethoxyphenyl)-N-(cyanomethyl)-4-methoxybenzenesulphonamide]
IC50 [1]: 407 nM | IC50 [2]: 575 nM | TPI % 10 µM [3]: 16% | IC50 [3]: > 10000 nM | melting point: 76 to 84 °C | solubility at 48 h [4]: 13 µg/mL (≈ 29.5 µM) | IC50 [5, 7]: 750 nM | IC50 [5, 8]: 360 nM

COc1ccc(S(=O)(=O)Nc2cc(OC)c(OC)cc2OC)cc1 [Compound 32, 4-Methoxy-N-(2,4,5-trimethoxyphenyl)benzenesulphonamide]
IC50 [1]: 410 nM | IC50 [2]: 580 nM | TPI % 10 µM [3]: 3% | IC50 [3]: > 10000 nM | melting point: 112 to 114 °C | solubility at 48 h [4]: 213 µg/mL (≈ 603 µM) | IC50 [5, 7]: 553 nM | IC50 [5, 8]: 360 nM

COc1ccc(S(=O)(=O)N(C)c2cc(OC)c(OC)cc2Br)cc1 [Compound 14, N-(2-bromo-4,5-dimethoxyphenyl)-4-methoxy-N-methylbenzenesulphonamide]
IC50 [1]: 557 nM | TPI % 10 µM [3]: 0% | IC50 [3]: > 10000 nM | melting point: 136 to 141 °C | solubility at 48 h [4]: 61 µg/mL (≈ 147 µM) | IC50 [5, 8]: 907 nM

COc1ccc(S(=O)(=O)N(CC#N)c2cc(OC)c(OC)cc2OC)cc1 [Compound 35, N-(cyanomethyl)-4-methoxy-N-(2,4,5-trimethoxyphenyl)benzenesulphonamide]
IC50 [1]: 500 nM | IC50 [2]: 67 nM | Fold more potent against MCF7 than against HeLa [2]: 4–7 fold | TPI % 10 µM [3]: 5% | IC50 [3]: > 10000 nM | melting point: 173 to 180 °C | solubility at 48 h [4]: 15 µg/mL (≈ 38.2 µM) | IC50 [5, 7]: 415 nM | IC50 [5, 8]: 365 nM

COc1ccc(S(=O)(=O)Nc2cc(OC)ccc2OC)cc1 [Compound 21, N-(2,5-dimethoxyphenyl)-4-methoxybenzenesulphonamide]
IC50 [1]: 227 nM | IC50 [2]: 350 nM | TPI % 10 µM [3]: 0% | IC50 [3]: > 10000 nM | melting point: 114 to 115 °C | solubility at 48 h [4]: 13 µg/mL (≈ 40.2 µM) | IC50 [5, 8]: 187 nM

COc1ccc(S(=O)(=O)Nc2ccc(OC)c(OC)c2)cc1 [Compound 11, N-(3,4-dimethoxyphenyl)-4-methoxybenzenesulphonamide]
IC50 [1]: > 1000 nM | IC50 [2]: > 1000 nM | TPI % 10 µM [3]: 4% | IC50 [3]: > 10000 nM | melting point: 101 to 102 °C | solubility at 48 h [4]: 82 µg/mL (≈ 254 µM) | IC50 [5, 8]: > 1000 nM

CCN(c1cc(OC)c(OC)cc1Br)S(=O)(=O)c1ccc(OC)cc1 [Compound 15, N-(2-bromo-4,5-dimethoxyphenyl)-N-ethyl-4-methoxybenzenesulphonamide]
IC50 [1]: 313 nM | IC50 [2]: 660 nM | TPI % 10 µM [3]: 24% | IC50 [3]: > 10000 nM | melting point: 111 to 117 °C | solubility at 48 h [4]: 26 µg/mL (≈ 60.4 µM) | IC50 [5, 7]: 500 nM | IC50 [5, 8]: 365 nM
